{"source": "patent US9572783B1", "about": "“Use of xanthophylls for the treatment of cancers” (priority 2015, dated 2017)", "type_in_all_cases": "cell-based", "key": {"[1]": {"tested_on": "Mouse adrenocortical Y1 cell line", "test": "Y1 cell number count after astaxanthin treatment (growth curve)", "settings": "40 μM astaxanthin, 1, 2 or 3 days of treatment", "method": "(§1) Mouse adrenocortical Y1 cell line (ATCC, ATCC® CCL-79™) was grown in Dulbecco's modified Eagle medium (DMEM)-F12 supplemented with 10% fetal bovine serum at 37° C. in a humidified atmosphere at 5% CO2.\n(§2) Astaxanthin (Model NO: ATP-9601A; Yuan Yu Bio-Tech (Taiwan), Co., Ltd) was dissolved in dimethyl sulfoxide (DMSO) at concentration of 20 mM as stock solution.\n(§3) The Y1 cells were incubated with DMSO or 40 μM of astaxanthin for 1, 2 or 3 days before analysis."}, "[2]": {"tested_on": "Mouse adrenocortical Y1 cell line", "test": "MTT assay of Y1 cell viability", "settings": "Y1 cells, 40 μM astaxanthin, 48 hours", "method": "as §1, §2, §3\n(§4) Cells were washed with PBS after the treatment, followed by addition of 1 ml MTT (3-(4,5-cimethylthiazol-2-yl)-2,5-diphenyl tetrazolium bromide) solution (2 mg/ml in PBS) in each well. After incubation for 3 hours at 37° C., 2 ml of DMSO was added and cells were incubated in the dark for 30 minutes. Absorbance was measured at the wavelength of 570 nm (OD570)."}, "[3]": {"tested_on": "Human U87MG cell line", "test": "U87MG cell number count after astaxanthin treatment", "settings": "100, 200 or 400 μM astaxanthin, 24 hours or 48 hours", "method": "(§5) Human U87MG (ATCC, ATCC® HTB-14™) cell line was grown in DMEM medium supplemented with 10% fetal bovine serum at 37° C. in a humidified atmosphere at 5% CO2. M059K (ATCC, ATCC® CRL-2365™) and M059J (ATCC, ATCC® CRL-2366™) cell lines were grown in Dulbecco's modified Eagle medium (DMEM)-F12 supplemented with 10% fetal bovine serum at 37° C. in a humidified atmosphere at 5% CO2.\n(§6) Astaxanthin was dissolved in dimethyl sulfoxide (DMSO) at concentration of 20 mM as stock solution.\n(§7) The U87MG, M059K, and M059J cell lines were treated with DMSO or 100, 200 or 400 μM of astaxanthin for 24 hours or 48 hours and cell numbers were counted."}, "[4]": {"tested_on": "Human U87MG cell line", "test": "MTT assay of U87MG cell viability", "settings": "DMSO or different concentrations of astaxanthin", "method": "as §4, §5, §6, §7"}, "[5]": {"tested_on": "M059K cell line", "test": "M059K cell number count after astaxanthin treatment", "settings": "100, 200 or 400 μM astaxanthin, 24 hours or 48 hours", "method": "as §5, §6, §7"}, "[6]": {"tested_on": "Human U2OS cell line", "test": "U2OS cell number count after astaxanthin treatment", "settings": "100, 200 or 400 μM astaxanthin, 72 hours", "method": "Human U2OS (ATCC, ATCC® HTB-96™) cell line was grown in DMEM medium supplemented with 10% fetal bovine serum at 37° C. in a humidified atmosphere at 5% CO2.\nas §6\nThe U2OS cell line was treated with DMSO or 100, 200 or 400 μM of astaxanthin for 72 hours and cell numbers were counted."}}, "data": [{"smiles": "CC1=C(/C=C/C(C)=C/C=C/C(C)=C/C=C/C=C(C)/C=C/C=C(C)/C=C/C2=C(C)C(=O)[C@@H](O)CC2(C)C)C(C)(C)C[C@H](O)C1=O", "note": "[astaxanthin, Astaxanthin]", "values": [{"measurement": "number of Y1 cells compared with control (DMSO treated) group", "setting": "[1]", "result": "reduced"}, {"measurement": "OD570 (MTT, cell viability) compared with DMSO treated group", "setting": "[2]", "result": "reduced"}, {"measurement": "U87MG cell growth (cell number)", "setting": "[3]", "result": "inhibited U87MG cell growth in a dose-dependent and time-dependent manner"}, {"measurement": "viability of U87MG cells (MTT)", "setting": "[4]", "result": "reduced"}, {"measurement": "M059K cell growth (cell number)", "setting": "[5]", "result": "also inhibited M059K"}, {"measurement": "U2OS cell growth (cell number)", "setting": "[6]", "result": "inhibited U2OS cell growth in a dose-dependent manner"}]}]}
